Reference: patent publication US20210261621A1, “Preparation of Dilipid Polymixins and Use Thereof as Antimicrobial Adjuvants” (priority 2018, published 2021)
≈ marks a conversion by molar mass, not a printed value. Like-named read-outs stand apart in the source and are kept apart here. Positions of bridges follow the written chain, without caps; N, C: chain ends. Non-standard residues stand in square brackets, D forms with d. Residues, ends and D or L forms follow the SMILES beside them. *: point of attachment. Octanoyl = CCCCCCCC(=O)*; Dab = NCC[C@H](N)C(=O)O; Butyryl = CCCC(=O)*

Assays:
MSSE CANWARD-2008 81388 = assay type: cell-based, Staphylococcus epidermidis; details: for MIC: MSSE CANWARD-2008 81388 (methicillin-susceptible Staphylococcus epidermidis)
From the text: (§1) Bacterial strains were either obtained from the American Type Culture Collection (ATCC), Canadian National Intensive Care Unit (CAN-ICU) surveillance study or the Canadian Ward Surveillance (CANWARD) study. Strains from both CAN-ICU and CANWARD are isolates recovered from patients diagnosed with a presumed infectious disease that were admitted in a participating medical center across Canada. Efflux-deficient strain PAO200 (lacking MexAB-OprM efflux system) and PA0750 (lacking MexAB-OprM, MexCD-OprJ, MexEF-OprN, MexJK and MexXY efflux systems, and the outer membrane protein OpmH) were kindly gifted by Dr. Ayush Kumar (University of Manitoba).
(§2) The in vitro antibacterial activity of the compounds studied were assessed by broth microdilution susceptibility testing following CLSI guidelines. Bacterial cultures were grown overnight prior to the assay. The overnight grown cultures were diluted in saline to 0.5 McFarland turbidity, followed by 1:50 dilution in Mueller-Hinton broth (MHB) for inoculation to a final concentration of approximately 5×10^5 colony forming units/mL. Testing was performed on 96-well plates where the tested compounds were 2-fold serially diluted in MHB and incubated with equal volumes of bacterial inoculum at 37° C. for 18 h. […] Wells containing MHB with or without bacterial cells were used as positive or negative control, respectively.

E. coli 107115 = assay type: cell-based, Escherichia coli; details: 107115
From the text: as §1, §2

E. coli ATCC 25922 = assay type: cell-based, Escherichia coli
From the text: as §1, §2

E. coli CAN-ICU 61714 = assay type: cell-based, Escherichia coli
From the text: as §1, §2

E. coli CAN-ICU 63074 = assay type: cell-based, Escherichia coli
From the text: as §1, §2

P. aeruginosa ATCC 27853 = assay type: cell-based, Pseudomonas aeruginosa
From the text: as §1, §2

[1] = tested on: P. aeruginosa CAN-ICU 62308; assay type: cell-based, Pseudomonas aeruginosa
From the text: as §1, §2

P. aeruginosa PA095 = assay type: cell-based, Pseudomonas aeruginosa; details: PA095
From the text: as §1, §2

P. aeruginosa PA100036 = assay type: cell-based, Pseudomonas aeruginosa
From the text: as §1, §2

P. aeruginosa PA101885 = assay type: cell-based, Pseudomonas aeruginosa; details: PA101885
From the text: as §1, §2

[2] = tested on: P. aeruginosa PA259-96918; assay type: cell-based, Pseudomonas aeruginosa; details: PA259-96918
From the text: as §1, §2

[3] = tested on: P. aeruginosa PA260-97103; assay type: cell-based, Pseudomonas aeruginosa; details: PA260-97103
From the text: as §1, §2

[4] = tested on: P. aeruginosa PA262-101856; assay type: cell-based, Pseudomonas aeruginosa
From the text: as §1, §2

[5] = tested on: P. aeruginosa PA264-104354; assay type: cell-based, Pseudomonas aeruginosa; details: PA264-104354
From the text: as §1, §2

P. aeruginosa PAO1 = assay type: cell-based, Pseudomonas aeruginosa
From the text: as §1, §2

K. pneumoniae 116381 = assay type: cell-based, Klebsiella pneumoniae
From the text: as §1, §2

K. pneumoniae ATCC 13883 = assay type: cell-based, Klebsiella pneumoniae
From the text: as §1, §2

E. cloacae 117029 = assay type: cell-based, Enterobacter cloacae; details: 117029
From the text: as §1, §2

A. baumannii 92247 = assay type: cell-based, Acinetobacter baumannii; details: 92247
Experimental: (§3) We then addressed the possibility for the dilipid polymyxins to display enhanced antibacterial activity against colistin-resistant Gram-negative pathogens. […] The extended hydrophobic region of the dilipid polymyxin may provide additional hydrophobic interactions to the outer membrane of colistin-resistant organisms. Eight MDR colistin-resistant Gram-negative bacterial isolates were tested, including two E. coli isolates harboring the mcr-1 plasmid-encoded polymyxin resistance gene. We found no difference between the antibacterial activity of dilipid polymyxins and colistin against colistin-resistant Gram-negative bacteria (Table 3).
as §1, §2

K. pneumoniae 113250 = assay type: cell-based, Klebsiella pneumoniae; details: 113250
Experimental: as §3, §1, §2

K. pneumoniae 113254 = assay type: cell-based, Klebsiella pneumoniae; details: 113254
Experimental: as §3, §1, §2

P. aeruginosa PAO200 = details: for MIC: P. aeruginosa PAO200, efflux-deficient strain that lacks the MexAB-OprM pump
From the text: (§4) To our curiosity, we explored whether efflux can affect the activity of polymyxins. It is widely accepted that polymyxins disrupt Gram-negative bacterial membranes that result to intracellular component leakage and bacterial cell death. However, for this to occur requires the agent to reach the periplasmic space to interact and disrupt the inner membrane. Active efflux may potentially expel polymyxins out of the periplasm, effectively reducing its periplasmic and intracellular concentrations. To study the effect of efflux on polymyxins in Gram-negative pathogens, we used P. aeruginosa as they inherently overexpress efflux systems such as MexAB-OprM, MexCD-OprJ and MexXY-OprM. Moreover, antibiotic substrates for these efflux systems are mostly characterized. We evaluated and compared the activity of the dilipid polymyxins, colistin and PMBN against wild-type PAO1 and two efflux-deficient P. aeruginosa isogenic mutants (Table 5). The strain PAO200 lacks the MexAB-OprM efflux system while strain PAO750 lacks five clinically-relevant pumps (MexAB-OprM, MexCD-OprJ, MexEF-OprN, MexJK and MexXY) and outer membrane protein OpmH.
as §1, §2

P. aeruginosa PAO750 = details: P. aeruginosa PAO750, efflux-deficient strain that lacks five pumps and OpmH
From the text: as §4, §1, §2

| Structure (SMILES) | MIC (MSSE CANWARD-2008 81388) [µg/mL] | MIC (E. coli 107115) [µg/mL] | MIC (P. aeruginosa PA095) [µg/mL] | MIC (P. aeruginosa PA101885) [µg/mL] | MIC [2] [µg/mL] | MIC [3] [µg/mL] | MIC [5] [µg/mL] | MIC (E. cloacae 117029) [µg/mL] | MIC (A. baumannii 92247) [µg/mL] | MIC (K. pneumoniae 113250) [µg/mL] | MIC (K. pneumoniae 113254) [µg/mL] | MIC (P. aeruginosa PAO200) [µg/mL] | MIC (P. aeruginosa PAO750) [µg/mL] | also measured |
| --- | --- | --- | --- | --- | --- | --- | --- | --- | --- | --- | --- | --- | --- | --- |
| CCCC(=O)NCC[C@H](NC(=O)CCC)C(=O)N[C@H](C(=O)N[C@@H](CCN)C(=O)N[C@H]1CCNC(=O)[C@H]([C@@H](C)O)NC(=O)[C@H](CCN)NC(=O)[C@H](CCN)NC(=O)[C@H](CC(C)C)NC(=O)[C@@H](Cc2ccccc2)NC(=O)[C@H](CCN)NC1=O)[C@@H](C)O [Compound 1, Dibutyric Acid (Di-C4) Polymyxin] (Butyryl-[Dab](Butyryl)T[Dab][Dab][Dab][dF]L[Dab][Dab]T; lactam 4-C) | >128 | 128 (≈ 106 µM) | 64 (≈ 53.2 µM) | 128 (≈ 106 µM) | 64 (≈ 53.2 µM) | 2 (≈ 1.66 µM) | 128 (≈ 106 µM) | 64 (≈ 53.2 µM) | >64 | >64 | >64 | 4 (≈ 3.32 µM) | 8 (≈ 6.65 µM) | MIC (E. coli ATCC 25922; E. coli ATCC 25922): >128 µg/mL; MIC (E. coli CAN-ICU 61714; E. coli CAN-ICU 61714): >128 µg/mL; MIC (E. coli CAN-ICU 63074; E. coli CAN-ICU 63074): >128 µg/mL; MIC (P. aeruginosa ATCC 27853; P. aeruginosa ATCC 27853): >128 µg/mL; MIC ([1]; P. aeruginosa CAN-ICU 62308): >128 µg/mL; MIC (P. aeruginosa PA100036; P. aeruginosa PA100036): >128 µg/mL; MIC ([4]; P. aeruginosa PA262-101856): >128 µg/mL; MIC (P. aeruginosa PAO1; P. aeruginosa PAO1 (wild type)): 128 µg/mL (≈ 106 µM); MIC (K. pneumoniae 116381; K. pneumoniae 116381): >128 µg/mL; MIC (K. pneumoniae ATCC 13883; K. pneumoniae ATCC 13883): >128 µg/mL; fold difference in MIC against wild-type PAO1 and efflux-deficient PAO200 (P. aeruginosa PAO200; PAO1 versus PAO200 (lacks MexAB-OprM)): 32 fold |
| CCCCCCCC(=O)NCC[C@H](NC(=O)CCCCCCC)C(=O)N[C@H](C(=O)N[C@@H](CCN)C(=O)N[C@H]1CCNC(=O)[C@H]([C@@H](C)O)NC(=O)[C@H](CCN)NC(=O)[C@H](CCN)NC(=O)[C@H](CC(C)C)NC(=O)[C@@H](Cc2ccccc2)NC(=O)[C@H](CCN)NC1=O)[C@@H](C)O [Compound 2, Dioctanoic Acid (Di-C8) Polymyxin] (Octanoyl-[Dab](Octanoyl)T[Dab][Dab][Dab][dF]L[Dab][Dab]T; lactam 4-C) | 8 (≈ 6.08 µM) | 2 (≈ 1.52 µM) | 2 (≈ 1.52 µM) | 4 (≈ 3.04 µM) | 2 (≈ 1.52 µM) | 2 (≈ 1.52 µM) | 4 (≈ 3.04 µM) | 2 (≈ 1.52 µM) | 8 (≈ 6.08 µM) | >64 | >64 | 2 (≈ 1.52 µM) | 2 (≈ 1.52 µM) | fold better MIC than colistin (MSSE CANWARD-2008 81388; methicillin-susceptible Staphylococcus epidermidis): 32 fold; MIC (E. coli ATCC 25922; ATCC 25922): 4 µg/mL (≈ 3.04 µM); MIC (E. coli CAN-ICU 61714; CAN-ICU 61714): 32 µg/mL (≈ 24.3 µM); MIC (E. coli CAN-ICU 63074; CAN-ICU 63074): 64 µg/mL (≈ 48.6 µM); MIC (P. aeruginosa ATCC 27853; ATCC 27853): 8 µg/mL (≈ 6.08 µM); MIC ([1]; CAN-ICU 62308): 8 µg/mL (≈ 6.08 µM); MIC (P. aeruginosa PA100036; PA100036): 4 µg/mL (≈ 3.04 µM); MIC ([4]; PA262-101856): 8 µg/mL (≈ 6.08 µM); MIC (P. aeruginosa PAO1; PAO1): 4 µg/mL (≈ 3.04 µM); MIC (K. pneumoniae 116381; 116381): >128 µg/mL; MIC (K. pneumoniae ATCC 13883; ATCC 13883): >128 µg/mL; difference in MIC among the three P. aeruginosa strains tested (P. aeruginosa PAO200; PAO1, PAO200, PAO750): no difference |
